{"source": "patent US7361645B2", "about": "“Androgenic 7-substituted 11-halogen steroids” (Bayer Schering Pharma AG, priority 2001, dated 2008)", "key": {"prostate": {"test_system": "prostate", "experiment": "Hershberger test, juvenile castrated male rat: prostate weight", "type": "in vivo", "conditions": "ORX juvenile rats, 7 days", "excerpt": "(§1) The test by Hershberger et al. (1953) is used as a screening test method for detecting androgenic properties:\n(§2) Principle. The function and size of the accessory reproductive glands (seminal vesicles, prostate) and of the muscle (e.g. M. levator ani) are androgen dependent. Castration leads to the atrophy of these organs, the substitution with androgenic compounds stimulates growth and function in a dose dependent manner.\n(§3) Test description. In the juvenile male castrated rat, pharmacologically active agonists of androgens stimulate the growth of the prostate, seminal vesicles (androgenic property) and Musculus levator ani (anabolic property). The treatment for seven days of juvenile castrated male rats with daily administration of compound A: 11β-Fluoro-17β-hydroxy-7α-methyl-estr-4-en-3-one,(different doses), compound B: 7α-methyl-19-nortestosterone (different doses), testosterone propionate (reference) and benzylbenzoate/ricinus oil (solvent and control), respectively, was used to determine the androgenic and anabolic potency of eF-MENT. Analyses: relative weights of prostate, seminal vesicles and M. levator ani.\n(§4) Animals: ORX, juvenile rats, duration of treatment: 7 days."}, "seminal vesicles": {"test_system": "seminal vesicles", "experiment": "Hershberger test, juvenile castrated male rat: seminal vesicles weight", "type": "in vivo", "conditions": "ORX juvenile rats, 7 days", "excerpt": "as §1, §2, §3, §4"}, "[1]": {"experiment": "Stability in liver microsomes, human", "type": "in vitro ADME", "conditions": "3 μM", "method": "(§5) The metabolic stability of the compounds has been tested in liver microsomes of various species (commercially available). It is possible to make predictions as to the first-pass-metabolism in human by using human test material. A rapid degradation of the test material gives hints at low oral bio-availability of the substance tested.\n(§6) The amount of the remaining compound is quantified by comparison with the amount remaining after 0 mins.\n(§7) Species Specific Stability of Test Compounds in Liver at a Concentration of 3 μM"}, "[2]": {"test_system": "prostate, seminal vesicles and M. levator ani", "experiment": "Anabolic and androgenic activity in the juvenile male rat (Hershberger), overall", "type": "in vivo", "conditions": "compared with prior art compound B", "excerpt": "as §1, §2, §3"}, "[3]": {"experiment": "Stability in liver microsomes, rat", "type": "in vitro ADME", "conditions": "3 μM", "method": "as §5, §6, §7"}, "M. levator ani": {"test_system": "M. levator ani", "experiment": "Hershberger test, juvenile castrated male rat: M. levator ani weight", "type": "in vivo", "conditions": "ORX juvenile rats, 7 days", "excerpt": "as §1, §2, §3, §4"}, "[4]": {"experiment": "Stability in liver microsomes of various species, overall", "type": "in vitro ADME", "conditions": "compared with compounds of the prior art", "method": "as §5, §6"}, "[5]": {"experiment": "Stability in liver microsomes, mouse", "type": "in vitro ADME", "conditions": "3 μM", "method": "as §5, §6, §7"}}, "note": "Several values for one entry are separate records, joined by “and”; a condition that tells them apart may be missing. Equal values may be shown once."}
{"smiles": "C[C@@H]1CC2=CC(=O)CC[C@@H]2[C@@H]2[C@@H]1[C@@H]1CC[C@H](O)[C@@]1(C)C[C@@H]2F", "note": "[Compound A, 11β-Fluoro-17β-hydroxy-7α-methyl-estr-4-en-3-one]", "values": [{"measurement": "Prostate Stimulation [mean]", "setting": "prostate; dose 0.015 mg*kg^-1*day^-1", "result": 30.0}, {"measurement": "Prostate rel. Weight", "setting": "prostate; dose 0.015 mg*kg^-1*day^-1", "result": "19.7 mg/100 g and 18.5 mg/100 g"}, {"measurement": "Prostate Stimulation [mean]", "setting": "prostate; dose 0.03 mg*kg^-1*day^-1", "result": 40.1}, {"measurement": "Prostate rel. Weight", "setting": "prostate; dose 0.03 mg*kg^-1*day^-1", "result": 25.2, "unit": "mg/100 g"}, {"measurement": "Prostate Stimulation [mean]", "setting": "prostate; dose 0.05 mg*kg^-1*day^-1", "result": 76.6}, {"measurement": "Prostate rel. Weight", "setting": "prostate; dose 0.05 mg*kg^-1*day^-1", "result": 34.1, "unit": "mg/100 g"}, {"measurement": "Prostate Stimulation [mean]", "setting": "prostate; dose 0.15 mg*kg^-1*day^-1", "result": 93.8}, {"measurement": "Prostate rel. Weight", "setting": "prostate; dose 0.15 mg*kg^-1*day^-1", "result": "41.7 mg/100 g and 44.9 mg/100 g and 47.5 mg/100 g"}, {"measurement": "Prostate Stimulation [mean]", "setting": "prostate; dose 0.3 mg*kg^-1*day^-1", "result": 125.1}, {"measurement": "Prostate rel. Weight", "setting": "prostate; dose 0.3 mg*kg^-1*day^-1", "result": 59.5, "unit": "mg/100 g"}, {"measurement": "Prostate Stimulation [mean]", "setting": "prostate; dose 1.5 mg*kg^-1*day^-1", "result": 137.3}, {"measurement": "Prostate rel. Weight", "setting": "prostate; dose 1.5 mg*kg^-1*day^-1", "result": 64.6, "unit": "mg/100 g"}, {"measurement": "Seminal vesicles Stimulation [mean]", "setting": "seminal vesicles; dose 0.015 mg*kg^-1*day^-1", "result": 18.6}, {"measurement": "Seminal vesicles rel. Gewicht", "setting": "seminal vesicles; dose 0.015 mg*kg^-1*day^-1", "result": "18.6 mg/100 g and 15.5 mg/100 g"}, {"measurement": "Seminal vesicles Stimulation [mean]", "setting": "seminal vesicles; dose 0.03 mg*kg^-1*day^-1", "result": 35.6}, {"measurement": "Seminal vesicles rel. Gewicht", "setting": "seminal vesicles; dose 0.03 mg*kg^-1*day^-1", "result": 26.8, "unit": "mg/100 g"}, {"measurement": "Seminal vesicles Stimulation [mean]", "setting": "seminal vesicles; dose 0.05 mg*kg^-1*day^-1", "result": 59.2}, {"measurement": "Seminal vesicles rel. Gewicht", "setting": "seminal vesicles; dose 0.05 mg*kg^-1*day^-1", "result": 43.6, "unit": "mg/100 g"}, {"measurement": "Seminal vesicles Stimulation [mean]", "setting": "seminal vesicles; dose 0.15 mg*kg^-1*day^-1", "result": 85.5}, {"measurement": "Seminal vesicles rel. Gewicht", "setting": "seminal vesicles; dose 0.15 mg*kg^-1*day^-1", "result": "49.3 mg/100 g and 57.9 mg/100 g and 64.4 mg/100 g"}, {"measurement": "Seminal vesicles Stimulation [mean]", "setting": "seminal vesicles; dose 0.3 mg*kg^-1*day^-1", "result": 144.8}, {"measurement": "Seminal vesicles rel. Gewicht", "setting": "seminal vesicles; dose 0.3 mg*kg^-1*day^-1", "result": 93.4, "unit": "mg/100 g"}, {"measurement": "Seminal vesicles Stimulation [mean]", "setting": "seminal vesicles; dose 1.5 mg*kg^-1*day^-1", "result": 189.3}, {"measurement": "Seminal vesicles rel. Gewicht", "setting": "seminal vesicles; dose 1.5 mg*kg^-1*day^-1", "result": 120.0, "unit": "mg/100 g"}, {"measurement": "(%) left unchanged after 30 min", "setting": "[1]", "result": 59, "unit": "%"}, {"measurement": "(%) left unchanged after 60 min", "setting": "[1]", "result": 41, "unit": "%"}, {"measurement": "activity profile (androgenic/anabolic)", "setting": "[2]", "result": "comparable to the prior art compound B"}, {"measurement": "(%) left unchanged after 30 min", "setting": "[3]", "result": 5, "unit": "%"}, {"measurement": "(%) left unchanged after 60 min", "setting": "[3]", "result": 7, "unit": "%"}, {"measurement": "M. levator ani Stimulation [mean]", "setting": "M. levator ani; dose 0.015 mg*kg^-1*day^-1", "result": 79.5}, {"measurement": "M. levator ani rel. Weight", "setting": "M. levator ani; dose 0.015 mg*kg^-1*day^-1", "result": "54.9 mg/100 g and 50.8 mg/100 g"}, {"measurement": "M. levator ani Stimulation [mean]", "setting": "M. levator ani; dose 0.03 mg*kg^-1*day^-1", "result": 93.3}, {"measurement": "M. levator ani rel. Weight", "setting": "M. levator ani; dose 0.03 mg*kg^-1*day^-1", "result": 56.5, "unit": "mg/100 g"}, {"measurement": "M. levator ani Stimulation [mean]", "setting": "M. levator ani; dose 0.05 mg*kg^-1*day^-1", "result": 118.0}, {"measurement": "M. levator ani rel. Weight", "setting": "M. levator ani; dose 0.05 mg*kg^-1*day^-1", "result": 59.4, "unit": "mg/100 g"}, {"measurement": "M. levator ani Stimulation [mean]", "setting": "M. levator ani; dose 0.15 mg*kg^-1*day^-1", "result": 154.5}, {"measurement": "M. levator ani Stimulation [mean]", "setting": "M. levator ani; dose 0.3 mg*kg^-1*day^-1", "result": 180.4}, {"measurement": "M. levator ani rel. Weight", "setting": "M. levator ani; dose 0.3 mg*kg^-1*day^-1", "result": 69.8, "unit": "mg/100 g"}, {"measurement": "M. levator ani Stimulation [mean]", "setting": "M. levator ani; dose 1.5 mg*kg^-1*day^-1", "result": 181.0}, {"measurement": "M. levator ani rel. Weight", "setting": "M. levator ani; dose 1.5 mg*kg^-1*day^-1", "result": 69.9, "unit": "mg/100 g"}, {"measurement": "metabolic stability", "setting": "[4]", "result": "higher than that of compounds of the prior art"}, {"measurement": "(%) left unchanged after 30 min", "setting": "[5]", "result": 20, "unit": "%"}, {"measurement": "(%) left unchanged after 60 min", "setting": "[5]", "result": 11, "unit": "%"}]}
{"smiles": "C[C@@H]1CC2=CC(=O)CC[C@@H]2[C@H]2CC[C@]3(C)[C@@H](O)CC[C@H]3[C@@H]21", "note": "[Compound B, 7α-methyl-19-nortestosterone, reference compound]", "values": [{"measurement": "Prostate Stimulation [mean]", "setting": "prostate; dose 0.005 mg*kg^-1*day^-1", "result": 4.3}, {"measurement": "Prostate rel. Weight", "setting": "prostate; dose 0.005 mg*kg^-1*day^-1", "result": 8.9, "unit": "mg/100 g"}, {"measurement": "Prostate Stimulation [mean]", "setting": "prostate; dose 0.015 mg*kg^-1*day^-1", "result": 24.0}, {"measurement": "Prostate rel. Weight", "setting": "prostate; dose 0.015 mg*kg^-1*day^-1", "result": "14.6 mg/100 g and 20.0 mg/100 g"}, {"measurement": "Prostate Stimulation [mean]", "setting": "prostate; dose 0.05 mg*kg^-1*day^-1", "result": 51.3}, {"measurement": "Prostate rel. Weight", "setting": "prostate; dose 0.05 mg*kg^-1*day^-1", "result": "24.7 mg/100 g and 31.7 mg/100 g"}, {"measurement": "Prostate Stimulation [mean]", "setting": "prostate; dose 0.15 mg*kg^-1*day^-1", "result": 90.2}, {"measurement": "Prostate rel. Weight", "setting": "prostate; dose 0.15 mg*kg^-1*day^-1", "result": 40.6, "unit": "mg/100 g"}, {"measurement": "Seminal vesicles Stimulation [mean]", "setting": "seminal vesicles; dose 0.005 mg*kg^-1*day^-1", "result": 4.6}, {"measurement": "Seminal vesicles rel. Gewicht", "setting": "seminal vesicles; dose 0.005 mg*kg^-1*day^-1", "result": 9.2, "unit": "mg/100 g"}, {"measurement": "Seminal vesicles Stimulation [mean]", "setting": "seminal vesicles; dose 0.015 mg*kg^-1*day^-1", "result": 17.0}, {"measurement": "Seminal vesicles rel. Gewicht", "setting": "seminal vesicles; dose 0.015 mg*kg^-1*day^-1", "result": "13.6 mg/100 g and 19.2 mg/100 g"}, {"measurement": "Seminal vesicles Stimulation [mean]", "setting": "seminal vesicles; dose 0.05 mg*kg^-1*day^-1", "result": 51.8}, {"measurement": "Seminal vesicles rel. Gewicht", "setting": "seminal vesicles; dose 0.05 mg*kg^-1*day^-1", "result": "36.8 mg/100 g and 39.0 mg/100 g"}, {"measurement": "Seminal vesicles Stimulation [mean]", "setting": "seminal vesicles; dose 0.15 mg*kg^-1*day^-1", "result": 87.8}, {"measurement": "Seminal vesicles rel. Gewicht", "setting": "seminal vesicles; dose 0.15 mg*kg^-1*day^-1", "result": 65.5, "unit": "mg/100 g"}, {"measurement": "(%) left unchanged after 30 min", "setting": "[1]", "result": 37, "unit": "%"}, {"measurement": "(%) left unchanged after 60 min", "setting": "[1]", "result": 19, "unit": "%"}, {"measurement": "(%) left unchanged after 30 min", "setting": "[3]", "result": 4, "unit": "%"}, {"measurement": "(%) left unchanged after 60 min", "setting": "[3]", "result": 6, "unit": "%"}, {"measurement": "M. levator ani Stimulation [mean]", "setting": "M. levator ani; dose 0.005 mg*kg^-1*day^-1", "result": 71.3}, {"measurement": "M. levator ani rel. Weight", "setting": "M. levator ani; dose 0.005 mg*kg^-1*day^-1", "result": 36.6, "unit": "mg/100 g"}, {"measurement": "M. levator ani Stimulation [mean]", "setting": "M. levator ani; dose 0.015 mg*kg^-1*day^-1", "result": 92.6}, {"measurement": "M. levator ani rel. Weight", "setting": "M. levator ani; dose 0.015 mg*kg^-1*day^-1", "result": "38.1 mg/100 g and 53.7 mg/100 g"}, {"measurement": "M. levator ani Stimulation [mean]", "setting": "M. levator ani; dose 0.05 mg*kg^-1*day^-1", "result": 150.7}, {"measurement": "M. levator ani rel. Weight", "setting": "M. levator ani; dose 0.05 mg*kg^-1*day^-1", "result": "48.1 mg/100 g and 59.4 mg/100 g"}, {"measurement": "M. levator ani Stimulation [mean]", "setting": "M. levator ani; dose 0.15 mg*kg^-1*day^-1", "result": 283.4}, {"measurement": "M. levator ani rel. Weight", "setting": "M. levator ani; dose 0.15 mg*kg^-1*day^-1", "result": 59.4, "unit": "mg/100 g"}, {"measurement": "(%) left unchanged after 30 min", "setting": "[5]", "result": 4, "unit": "%"}, {"measurement": "(%) left unchanged after 60 min", "setting": "[5]", "result": 4, "unit": "%"}]}
